Test results published in ChEMBL document CHEMBL1127772, “Pyrazolo[1,5-a]pyridines and pyrazolo[1,5-b]pyridazines as 5ht3-antagonists” (Bioorg Med Chem Lett, 1994).

Legend:
[1] = target: T1, Serotonin 3 (5-HT3) receptor (Rattus norvegicus, UniProt P35563+Q9JJ16); test: Inhibition of [3H]GR-65630 binding to rat cortical membrane serotonin 3 receptor
T1 sequence (P35563 whole entry): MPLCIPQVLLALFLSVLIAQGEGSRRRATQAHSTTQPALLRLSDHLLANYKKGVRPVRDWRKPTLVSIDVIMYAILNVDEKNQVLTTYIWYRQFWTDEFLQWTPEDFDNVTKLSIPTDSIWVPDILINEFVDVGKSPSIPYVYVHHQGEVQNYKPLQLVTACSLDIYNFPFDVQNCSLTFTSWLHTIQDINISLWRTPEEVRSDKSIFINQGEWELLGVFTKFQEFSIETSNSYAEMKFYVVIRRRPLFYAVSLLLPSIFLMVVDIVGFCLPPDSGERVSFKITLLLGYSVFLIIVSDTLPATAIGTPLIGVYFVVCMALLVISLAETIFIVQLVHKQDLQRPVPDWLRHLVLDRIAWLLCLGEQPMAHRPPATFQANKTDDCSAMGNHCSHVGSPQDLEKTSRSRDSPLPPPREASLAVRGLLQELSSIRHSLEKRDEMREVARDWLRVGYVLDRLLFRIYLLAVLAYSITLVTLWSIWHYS
T1 sequence (Q9JJ16 whole entry): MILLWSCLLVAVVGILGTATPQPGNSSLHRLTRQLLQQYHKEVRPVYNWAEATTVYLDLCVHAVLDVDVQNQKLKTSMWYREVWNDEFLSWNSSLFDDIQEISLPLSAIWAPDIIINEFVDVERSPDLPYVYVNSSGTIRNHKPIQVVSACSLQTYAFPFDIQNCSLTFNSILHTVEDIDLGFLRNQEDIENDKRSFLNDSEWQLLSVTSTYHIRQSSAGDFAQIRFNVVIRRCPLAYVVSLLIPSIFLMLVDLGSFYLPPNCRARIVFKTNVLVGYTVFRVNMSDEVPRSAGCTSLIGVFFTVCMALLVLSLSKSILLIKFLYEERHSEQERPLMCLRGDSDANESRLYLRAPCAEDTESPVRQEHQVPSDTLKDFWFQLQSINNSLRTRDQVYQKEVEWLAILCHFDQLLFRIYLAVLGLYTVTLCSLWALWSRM

[2] = target: T2, Serotonin 3 (5-HT3) receptor (Rattus norvegicus) (UniProt P35563+Q9JJ16); test: Ability to antagonise the 5-HT- induced Von Bezold-Jarisch reflex in the rat after intravenous administration of 30 ug/kg of HT (5-hydroxytryptamine 3 receptor); format: functional, organism-based
[3] = target: T1, Serotonin 3 (5-HT3) receptor; test: Inhibition of 5-HT (1 ug/mL) induced depolarization in rat vagus nerve (5-hydroxytryptamine 3 receptor antagonism); format: functional, tissue-based
[4] = target: T2, Serotonin 3 (5-HT3) receptor (Rattus norvegicus); test: Antagonism of 5-HT-induced Von Bezold-Jarisch reflex in rat after intravenous administration of 30 ug/kg of HT (5-hydroxytryptamine 3 receptor antagonism); format: functional, organism-based
[5] = target: T3, D(2) dopamine receptor (Homo sapiens, UniProt P14416); test: Tested for binding affinity for Dopamine D2 receptor
T3 sequence (P14416 whole entry): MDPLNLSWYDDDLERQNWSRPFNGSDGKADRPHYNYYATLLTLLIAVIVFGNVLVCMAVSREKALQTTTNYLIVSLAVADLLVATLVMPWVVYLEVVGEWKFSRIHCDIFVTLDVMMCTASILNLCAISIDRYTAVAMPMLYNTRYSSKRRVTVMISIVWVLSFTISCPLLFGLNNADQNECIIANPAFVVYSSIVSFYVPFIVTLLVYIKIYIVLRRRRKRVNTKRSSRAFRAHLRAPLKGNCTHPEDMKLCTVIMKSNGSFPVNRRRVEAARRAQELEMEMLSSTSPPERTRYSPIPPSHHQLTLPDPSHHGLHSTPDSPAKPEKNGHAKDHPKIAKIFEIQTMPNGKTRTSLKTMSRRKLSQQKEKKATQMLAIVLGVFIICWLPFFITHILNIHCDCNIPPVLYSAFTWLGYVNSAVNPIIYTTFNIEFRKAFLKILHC

[6] = target: T4, 5-hydroxytryptamine receptor 1A (Homo sapiens, UniProt P08908); test: Tested for binding affinity for 5-hydroxytryptamine 1A receptor
T4 sequence (P08908 whole entry): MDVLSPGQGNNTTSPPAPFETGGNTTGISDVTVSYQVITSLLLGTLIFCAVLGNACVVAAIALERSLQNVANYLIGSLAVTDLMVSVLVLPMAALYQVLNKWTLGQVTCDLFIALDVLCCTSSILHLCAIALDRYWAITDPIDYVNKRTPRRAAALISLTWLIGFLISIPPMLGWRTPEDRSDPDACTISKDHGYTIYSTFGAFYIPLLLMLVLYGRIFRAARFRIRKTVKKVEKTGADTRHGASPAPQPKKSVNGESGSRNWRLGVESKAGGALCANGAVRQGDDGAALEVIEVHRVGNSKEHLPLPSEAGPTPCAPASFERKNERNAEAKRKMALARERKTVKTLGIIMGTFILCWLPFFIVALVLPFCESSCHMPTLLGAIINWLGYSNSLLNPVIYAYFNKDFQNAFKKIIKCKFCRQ

[7] = target: Serotonin 2 (5-HT2) receptor (Homo sapiens, UniProt P41595+P28223+P28335); test: Tested for binding affinity for 5-hydroxytryptamine 2 receptor; format: protein assay
[8] = target: T1, Serotonin 3 (5-HT3) receptor; test: Tested for inhibition of binding of [3H]GR-65630 to rat cortical membranes, expressed as IC50; format: cell membranes, Membrane
[9] = target: T3, D(2) dopamine receptor; test: Tested for binding affinity for Dopamine D2 receptors

Structure (SMILES)	IC50 [1] [µM]	ED50 [2] [µg/kg]	IC50 [3] [µM]	ED50 [4] [µg/kg]	further results
Cc1nn2ccccc2c1C(=O)NC1CC2CCC(C1)N2C (stereo not given)	0.026	1.2	0.042	–	–
Cc1nn2ncccc2c1C(=O)NC1CC2CCC(C1)N2C (stereo not given)	0.122	50	–	–	–
CN1[C@@H]2CC[C@H]1C[C@@H](OC(=O)c1c[nH]c3ccccc13)C2 [TROPISETRON]	0.0031	–	0.0014	0.5	–
Cc1nn2ncccc2c1C(=O)NC1CC2CCCC(C1)N2C (stereo not given)	> 0.3	> 50	–	–	–
Cc1nn2ccccc2c1C(=O)NC1CC2CCCC(C1)N2C (stereo not given)	0.064	–	0.1	6	–
CN1C2CCC1CC(NC(=O)c1cnn3ncccc13)C2 (stereo not given)	0.429	–	–	30	–
O=C(N[C@H]1CN2CCC1C2)c1cnn2ccccc12 (stereo not given in full)	0.052	–	0.124	2	–
CN1C2CCC1CC(NC(=O)c1cnn3ccccc13)C2 (stereo not given)	0.034	–	0.105	0.74	IC50 [5]: > 10 µM; IC50 [6]: > 10 µM; IC50 [7]: > 10 µM
O=C(N[C@@H]1CN2CC[C@@H]1C2)c1cnn2ccccc12	0.072	–	0.419	8	–
CN1C2CCCC1CC(NC(=O)c1cnn3ncccc13)C2 (stereo not given)	–	> 100	–	–	IC50 [8]: 0.818 µM
CN1C2CCCC1CC(NC(=O)c1cnn3ccccc13)C2 (stereo not given)	0.17	–	0.3	5	–
CN1C2CCC1CC(OC(=O)c1cnn3ccccc13)C2 (stereo not given)	0.028	–	–	2	IC50 [6]: > 10 µM; IC50 [7]: > 10 µM; IC50 [9]: > 10 µM
O=C(NC1CN2CCC1CC2)c1cnn2ccccc12 (stereo not given)	0.075	–	0.083	1	–
